Values of other authors as cited in patent US4374828A, “Biologically active thymones from the thymus” (Board of Reagents, The University of Texas System, priority 1980, dated 1983).

Legend:
murine prothymocytes = conditions: in vitro
[1] = system: cells which had a B-lineage; conditions: in vitro

## (H) Arg^32 -Lys^33 -Asp^34 -Val^35 -Tyr^36 -OH [pentapeptide]
Murine prothymocytes
  Differentiation of prothymocytes to thymocytes (in words): induced, in vitro, differentiation of murine prothymocytes to thymocytes
[1]
  Differential induction of B-lineage cells (in words): inhibited, in vitro, the differential induction of cells which had a B-lineage

## NH2 -Ser-Glu-Phe-Leu-Glu^5 -Asp-Pro-Ser-Val-Leu^10 -Thr-Lys-Glu-Lys-Leu^15 -Lys-Ser-Glu-Leu-Val^20 -Ala-Asn-Val-Thr^25 -Leu-Pro-Ala-Gly-Glu^30 -Gln-Arg-Lys-Asp-Val^35 -Tyr-Val-Gln-Leu-Tyr^40 -Leu-Gln-Thr-Leu-Thr^45 -Ala-Val-Lys-Arg^49 -COOH (H-SEFLEDPSVLTKEKLKSELVANVTLPAGEQRKDVYVQLYLQTLTAVKR-OH) [thymin II, polypeptide of bovine thymin, renamed thymopoietin II]
Marrow cells
  Induction of marrow cells (in words): induce marrow cells to develop as intrathymic lymphocytes

## thymopoietin: a preparation of thymopoietin
Spleen cells of old mice
  Immune function of spleen cells (in words): increased the immune function of the spleen cells of old mice
